In patent US10864163B2, “Therapeutic agents and delivery with microspheres” (UCL Business PLC, priority 2013, dated 2020):
“Also recorded” adds a separate entry of the source.

How the values were obtained:
[1] = Attachment of API (doxorubicin) to wetted and non-wetted TIPS microspheres; type: physicochemical; conditions: doxorubicin 0.5 mg/ml in water, overnight at room temperature, 150 rpm, centrifuged at 13000 rpm for 20 seconds
Experimental: 100 mg of TIPS microspheres was added to a 7 ml plastic container. The microspheres were wetted with 70% ethanol for 1 minute. The alcohol was removed and the microspheres washed with 5 ml deionised water. 1 ml of doxorubicin (0.5 mg/ml in water) was added to the container. The microspheres and doxorubicin solution were mixed by pipetting and incubated overnight at room temperature with agitation at 150 rpm on an orbital shaker. Control non-wetted microspheres were treated in the same manner. The microspheres were centrifuged at 13000 rpm for 20 seconds.

[2] = Release of API from doxorubicin-loaded wetted TIPS microspheres (FIG. 11d); type: physicochemical; conditions: doxorubicin attached to pre-wetted TIPS microspheres

## COc1cccc2c1C(=O)c1c(O)c3c(c(O)c1C2=O)C[C@@](O)(C(=O)CO)C[C@@H]3O[C@H]1C[C@H](N)[C@H](O)[C@H](C)O1 [doxorubicin]
[1]; control non-wetted microspheres
  binding of doxorubicin to the surface of non-wetted, hydrophobic microspheres: separated from the non-wetted samples; also recorded: does not bind to the surface of non-wetted, hydrophobic microspheres
[1]; microspheres pre-wetted with 70% ethanol
  binding of doxorubicin to the surface of wetted TIPS microspheres: remained bound to the surface of the wetted microspheres; also recorded: binds well to the surface of pre-wetted TIPS microspheres
[2]
  release of the API from wetted TIPS microspheres: controlled release of the API is observed over a prolonged period
